Our source for the EC50 values is patent US10294234B2, “HIV inhibitor compounds” (priority 2017, dated 2019).

pEC50: −log10 of the molar value.

The subject of this experiment is HIV-1 (IIIB) in MT-4 cells. Briefly: MT-4 HIV assay. The class given is cell-based. The settings on record: Human immunodeficiency virus 1, MT4, 120 h; HIV-1 (IIIB), MT-4 cells, 5 days, Cell Titer Glo; read-out: EC50. In short, it runs like this: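 Antiviral activity was read by Cell Titer Glo after a 5-day, 37 °C culture of MT-4 cells pre-infected with a 1:250 dilution of HIV-1 (IIIB). Compounds were tested as threefold dilution series in complete RPMI. Controls were no drug, mock infection and 5 uM AZT.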
By pEC50 is commonly meant the EC50 on a negative log10 scale, so that one unit is a factor of ten. Regarding `COC(=O)N[C@H](C(=O)N[C@@H](Cc1ccc(C#Cc2ccc(N3CC4CCC(C3)N4[C@@H]3CCOC3)nc2)cc1)[C@@H](O)CN(Cc1c(F)cc(-c2ccn(C(F)F)n2)cc1F)NC(=O)[C@@H](NC(=O)OC)C(C)(C)C(F)(F)F)C(C)(C)C(F)(F)F` [Example 143, Methyl ((5S,8S,9S,14S)-11-(4-(1-(difluoromethyl)-1H-pyrazol-3-yl)-2,6-difluorobenzyl)-16,16,16-trifluoro-9-hydroxy-15,15-dimethyl-3,6,13-trioxo-8-(4-((6-(8-((R)-tetrahydrofuran-3-yl)-3,8-diazabicyclo[3.2.1]octan-3-yl)pyridin-3-yl)ethynyl)benzyl)-5-(1,1,1-trifluoro-2-methylpropan-2-yl)-2-oxa-4,7,11,12-tetraazahexadecan-14-yl)carbamate], the pEC50 was 8.11. Under `COC(=O)N[C@H](C(=O)N[C@@H](Cc1ccc(C#Cc2ccc(N3CC4CCC(C3)N4C3COC3)nc2)cc1)[C@@H](O)CN(Cc1ccc(-c2ccccn2)cc1Cl)NC(=O)[C@@H](NC(=O)OC)C(C)(C)C(F)(F)F)C(C)(C)C(F)(F)F` [Example 148, Methyl ((5S,8S,9S,14S)-11l-(2-chloro-4-(pyridin-2-yl)benzyl)-16,16,16-trifluoro-9-hydroxy-15,15-dimethyl-8-(4-((6-(8-(oxetan-3-yl)-3,8-diazabicyclo[3.2.1]octan-3-yl)pyridin-3-yl)ethynyl)benzyl)-3,6,13-trioxo-5-(1,1,1-trifluoro-2-methylpropan-2-yl)-2-oxa-4,7,11,12-tetraazahexadecan-14-yl)carbamate] stands 8.16; under `COC(=O)N[C@H](C(=O)N[C@@H](Cc1ccc(C#Cc2ccc(N3CC4CCC(C3)N4C3COC3)nc2)cc1)[C@@H](O)CN(Cc1c(Cl)cc(-c2ccccn2)cc1Cl)NC(=O)[C@@H](NC(=O)OC)C(C)(C)C(F)(F)F)C(C)(C)C(F)(F)F` [Example 149, Methyl ((5S,8S,9S,14S)-11-(2,6-dichloro-4-(pyridin-2-yl)benzyl)-16,16,16-trifluoro-9-hydroxy-15,15-dimethyl-8-(4-((6-(8-(oxetan-3-yl)-3,8-diazabicyclo[3.2.1]octan-3-yl)pyridin-3-yl)ethynyl)benzyl)-3,6,13-trioxo-5-(1,1,1-trifluoro-2-methylpropan-2-yl)-2-oxa-4,7,11,12-tetraazahexadecan-14-yl)carbamate], 8.08.

Take `COC(=O)N[C@H](C(=O)N[C@@H](Cc1ccc(C#Cc2cnc(N3CC4CCC(C3)N4C3COC3)c(C)c2)cc1)[C@@H](O)CN(Cc1c(F)cc(-c2ccn(C(F)F)n2)cc1F)NC(=O)[C@@H](NC(=O)OC)C(C)(C)C(F)(F)F)C(C)(C)C(F)(F)F` [Example 150, Methyl ((5S,8S,9S,14S)-11-(4-(1-(difluoromethyl)-1H-pyrazol-3-yl)-2,6-difluorobenzyl)-16,16,16-trifluoro-9-hydroxy-15,15-dimethyl-8-(4-((5-methyl-6-(8-(oxetan-3-yl)-3,8-diazabicyclo[3.2.1]octan-3-yl)pyridin-3-yl)ethynyl)benzyl)-3,6,13-trioxo-5-(1,1,1-trifluoro-2-methylpropan-2-yl)-2-oxa-4,7,11,12-tetraazahexadecan-14-yl)carbamate]: the pEC50 is 8.23.

In the case of `COC(=O)N[C@H](C(=O)N[C@@H](Cc1ccc(C#Cc2cnc(N3CC4CCC(C3)N4C3COC3)cc2C)cc1)[C@@H](O)CN(Cc1c(F)cc(-c2ccn(C(F)F)n2)cc1F)NC(=O)[C@@H](NC(=O)OC)C(C)(C)C(F)(F)F)C(C)(C)C(F)(F)F` [Example 151, Methyl ((5S,8S,9S,14S)-11-(4-(1-(difluoromethyl)-1H-pyrazol-3-yl)-2,6-difluorobenzyl)-16,16,16-trifluoro-9-hydroxy-15,15-dimethyl-8-(4-((4-methyl-6-(8-(oxetan-3-yl)-3,8-diazabicyclo[3.2.1]octan-3-yl)pyridin-3-yl)ethynyl)benzyl)-3,6,13-trioxo-5-(1,1,1-trifluoro-2-methylpropan-2-yl)-2-oxa-4,7,11,12-tetraazahexadecan-14-yl)carbamate], the pEC50 was 8.32. Regarding `COC(=O)N[C@H](C(=O)N[C@@H](Cc1ccc(C#Cc2ccc(N3CC4CCC(C3)N4C3COC3)nc2C)cc1)[C@@H](O)CN(Cc1c(F)cc(-c2ccn(C(F)F)n2)cc1F)NC(=O)[C@@H](NC(=O)OC)C(C)(C)C(F)(F)F)C(C)(C)C(F)(F)F` [Example 152, Methyl ((5S,8S,9S,14S)-11-(4-(1-(difluoromethyl)-1H-pyrazol-3-yl)-2,6-difluorobenzyl)-16,16,16-trifluoro-9-hydroxy-15,15-dimethyl-8-(4-((2-methyl-6-(8-(oxetan-3-yl)-3,8-diazabicyclo[3.2.1]octan-3-yl)pyridin-3-yl)ethynyl)benzyl)-3,6,13-trioxo-5-(1,1,1-trifluoro-2-methylpropan-2-yl)-2-oxa-4,7,11,12-tetraazahexadecan-14-yl)carbamate], the pEC50 was 8.21. `COC(=O)N[C@H](C(=O)N[C@@H](Cc1ccc(C#Cc2ccc(N3CC4CCC(C3)N4C3COC3)nc2C)cc1)[C@@H](O)CN(Cc1c(F)cc(-c2cnn(C(F)F)c2)cc1F)NC(=O)[C@@H](NC(=O)OC)C(C)(C)C(F)(F)F)C(C)(C)C(F)(F)F` [Example 155, Methyl ((5S,8S,9S,14S)-11-(4-(1-(difluoromethyl)-1H-pyrazol-4-yl)-2,6-difluorobenzyl)-16,16,16-trifluoro-9-hydroxy-15,15-dimethyl-8-(4-((2-methyl-6-(8-(oxetan-3-yl)-3,8-diazabicyclo[3.2.1]octan-3-yl)pyridin-3-yl)ethynyl)benzyl)-3,6,13-trioxo-5-(1,1,1-trifluoro-2-methylpropan-2-yl)-2-oxa-4,7,11,12-tetraazahexadecan-14-yl)carbamate]: the pEC50 is 8.05. `CC(C)([C@H](NC(=O)OC1CC1)C(=O)N[C@@H](Cc1ccc(C#Cc2ccc(N3CC4CCC(C3)N4C3COC3)nc2)cc1)[C@@H](O)CN(Cc1c(F)cc(-c2ccn(C(F)F)n2)cc1F)NC(=O)[C@@H](NC(=O)OC1CC1)C(C)(C)C(F)(F)F)C(F)(F)F` [Example 156, Cyclopropyl ((2S)-1-(2-((2S,3S)-3-((S)-2-((cyclopropoxycarbonyl)amino)-4,4,4-trifluoro-3,3-dimethylbutanamido)-2-hydroxy-4-(4-((6-(8-(oxetan-3-yl)-3,8-diazabicyclo[3.2.1]octan-3-yl)pyridin-3-yl)ethynyl)phenyl)butyl)-2-(4-(1-(difluoromethyl)-1H-pyrazol-3-yl)-2,6-difluorobenzyl)hydrazinyl)-4,4,4-trifluoro-3,3-dimethyl-1-oxobutan-2-yl)carbamate]: the pEC50 was 7.77. Under `COC(=O)N[C@H](C(=O)N[C@@H](Cc1ccc(C#Cc2ccc(N3CC4CCC(C3)N4C3COC3)nc2)cc1)[C@@H](O)CN(Cc1ccc(-c2cnn(C(F)F)c2)cc1F)NC(=O)[C@@H](NC(=O)OC)C(C)(C)C(F)(F)F)C(C)(C)C(F)(F)F` [Example 157, Methyl ((5S,8S,9S,14S)-11-(4-(1-(difluoromethyl)-1H-pyrazol-4-yl)-2-fluorobenzyl)-16,16,16-trifluoro-9-hydroxy-15,15-dimethyl-8-(4-((6-(8-(oxetan-3-yl)-3,8-diazabicyclo[3.2.1]octan-3-yl)pyridin-3-yl)ethynyl)benzyl)-3,6,13-trioxo-5-(1,1,1-trifluoro-2-methylpropan-2-yl)-2-oxa-4,7,11,12-tetraazahexadecan-14-yl)carbamate] stands 8.34; under `COC(=O)N[C@H](C(=O)N[C@@H](Cc1ccc(C#Cc2cnc(N3CC4CCC(C3)N4C3COC3)nc2)cc1)[C@@H](O)CN(Cc1c(F)cc(-c2ccn(C(F)F)n2)cc1F)NC(=O)[C@@H](NC(=O)OC)C12CC(C(F)(F)F)(C1)C2)C12CC(C(F)(F)F)(C1)C2` [Example 160, Methyl ((5S,8S,9S,14S)-11-(4-(1-(difluoromethyl)-1H-pyrazol-3-yl)-2,6-difluorobenzyl)-9-hydroxy-8-(4-((2-(8-(oxetan-3-yl)-3,8-diazabicyclo[3.2.1]octan-3-yl)pyrimidin-5-yl)ethynyl)benzyl)-3,6,13-trioxo-5,14-bis(3-(trifluoromethyl)bicyclo[1.1.1]pentan-1-yl)-2-oxa-4,7,11,12-tetraazatetradecan-14-yl)carbamate], 5.24. As for `COC(=O)N[C@H](C(=O)N[C@@H](Cc1ccc(C#Cc2ccc(N3CC4CCC(C3)N4)nc2)cc1)[C@@H](O)CN(Cc1c(F)cc(-c2cnn(C(F)F)c2)cc1F)NC(=O)[C@@H](NC(=O)OC)C(C)(C)C(F)(F)F)C(C)(C)C(F)(F)F` [Example 162, Methyl ((5S,8S,9S,14S)-8-(4-((6-(3,8-diazabicyclo[3.2.1]octan-3-yl)pyridin-3-yl)ethynyl)benzyl)-11-(4-(1-(difluoromethyl)-1H-pyrazol-4-yl)-2,6-difluorobenzyl)-16,16,16-trifluoro-9-hydroxy-15,15-dimethyl-3,6,13-trioxo-5-(1,1,1-trifluoro-2-methylpropan-2-yl)-2-oxa-4,7,11,12-tetraazahexadecan-14-yl)carbamate], the pEC50 was 7.91. Consider `COC(=O)N[C@H](C(=O)N[C@@H](Cc1ccc(C#Cc2ccc(N3C[C@H]4CN(C)C[C@H]4C3)nc2)cc1)[C@@H](O)CN(Cc1c(F)cc(-c2ccn(C(F)F)n2)cc1F)NC(=O)[C@@H](NC(=O)OC)C(C)(C)C(F)(F)F)C(C)(C)C(F)(F)F` [Example 164, Methyl ((5S,8S,9S,14S)-11-(4-(1-(difluoromethyl)-1H-pyrazol-3-yl)-2,6-difluorobenzyl)-16,16,16-trifluoro-9-hydroxy-15,15-dimethyl-8-(4-((6-((3 aR,6aS)-5-methylhexahydropyrrolo[3,4-c]pyrrol-2(1H)-yl)pyridin-3-yl)ethynyl)benzyl)-3,6,13-trioxo-5-(1,1,1-trifluoro-2-methylpropan-2-yl)-2-oxa-4,7,11,12-tetraazahexadecan-14-yl)carbamate], for which the pEC50 is 8.10.
